# Patent US10858323B2, “HDAC inhibitors for the treatment of diabetic peripheral neuropathy” (REGENACY PHARMACEUTICALS, LLC, priority 2015, dated 2020)
# What was measured:
# [1] = test system: streptozotocin hyperglycemic rats, dorsal root ganglia and sciatic nerves; test: Metabolomic study in diabetic neuropathic pain model; format: in vivo, rat; details: 10 mg/kg twice per day, 11 days
# Protocol: Hyperglycemia was induced in rats with an injection of streptozotocin (60 mg/kg). Ten days later neuropathic pain was confirmed using a von Frey filament test for tactile allodynia. In this test, filaments of increasing diameter were applied to the plantar surface of the rear paw and the force necessary to precipitate a paw withdrawal is determined by the smallest filament needed to invoke a response. […] In addition, three naïve rats and three rats that had tactile allodynia at day 10 were sacrificed and the dorsal root ganglia and sciatic nerves were dissected and frozen as control samples.
# Dorsal root ganglia and sciatic nerves were sent to Human Metabolome Technologies for analysis of metabolic intermediates. Extracts from these samples were analyzed by capillary electrophoresis/mass spectrometry to measure the level of charged metabolites. In addition, sciatic nerve extracts were analyzed by liquid chromatography/mass spectrometry to measure the level of non-charged metabolites.
# [2] = test system: streptozotocin-induced diabetic rats (STZ rats); test: Von Frey test of tactile allodynia in STZ diabetic rats; format: in vivo, rat; details: for tactile allodynia / pain threshold (von Frey): STZ rats, oral dosing days 11-21
# Protocol: Diabetes was induced in male SD rats by IV dosing of STZ (60 mg/kg) on […]. Blood glucose level (BGL) of above 300 mg/dl was observed on study day 3, following STZ dosing, which maintained throughout the study period.
# Gabapentin (150 mg/kg) was used as a positive control. Tactile allodynia was measured on the indicated days during dosing and once on day 24, three days after dosing was stopped. Vehicle treated animals experienced low mechanical threshold throughout the treatment period (days 11-21) and also 3 days after the last dose (day 24).
# [3] = Blood brain barrier penetration; details: in vivo
# [4] = test system: Rats; test: Tail Flick test; format: in vivo, rat; details: BID for 4 days or single dose 1 h before test
# Protocol: A Tail Flick test was performed every hour in a time period of four hours after treatments.
# Data are presented in FIG. 4 as the latency time in seconds until the animals flicked their tails in response to the heat source. Morphine and Gabapentin were used as positive controls.
# [5] = test system: Dorsal root ganglion neurons (DRGNs); test: Acetyl-tubulin fluorescent ICC of axonal microtubules; format: cell-based, rat
# Protocol: DRGNs were treated with Compound 2 on coverslips, fixed and stained with antibodies against acetyl-tubulin and total tubulin (fluorescent ICC) to visualize and quantitate tubulin acetylation in axonal microtubules. […] Acetyl-tubulin signal was normalized to total tubulin signal.
# [6] = test system: primary rat dorsal root ganglion (DRG) neurons; test: Mitochondrial axonal transport live imaging under high glucose; format: cell-based; details: 200 mM glucose and 500 nM compound, 24 h
# Protocol: To investigate the effects of hyperglycemia on axonal transport live imaging was used to measure mitochondrial transport in primary rat dorsal root ganglion cells. Primary rat dorsal root ganglion (DRG) neurons (Lonza) were cultured for 5-7 days according to the vendor's protocol. The day before the imaging session cells were infected using CellLight Mitochondria-GFP (BacMam 2.0-based reagent, ThermoFisher Scientific) to fluorescently label mitochondria. […] Media in control wells was replaced with fresh media containing 25 mM glucose (control). Cells were allowed to incubate under these conditions for 24 h. […] Imaging was performed using Zeiss 3i system (Intelligent Imaging Innovations) in temperate controlled environment (37 C). Mitochondria were visualized using FITC filter. Time lapse images were acquired every 2 seconds over the course of 2 min and analyzed using Fiji (ImageJ). MtrackJ plugin was used to manually track mitochondrial movements and calculate parameters such as total distance traveled by each mitochondria. Total distance traveled by a population of mitochondria in each condition was plotted as a cumulative frequency plot. Data presented is a pool of 5 independent experiments.
# [7] = test system: Dorsal root ganglion neurons (DRGNs); test: Tubulin and histone acetylation by western blot of whole cell extracts; format: cell-based, rat; details: 24 hours treatment
# [8] = biological target: HDAC6 (Homo sapiens (Human), UniProt Q9UBN7); test: HDAC enzyme assay (HDAC6); format: biochemical
# [9] = biological target: HDAC2 (Homo sapiens (Human), UniProt Q92769); test: HDAC enzyme assay (HDAC2); details: read-out: HDAC2 IC50
# [10] = biological target: HDAC1 (Homo sapiens (Human), UniProt Q13547); test: HDAC enzyme assay (HDAC1); format: biochemical
# [11] = biological target: HDAC3 (Homo sapiens (Human), UniProt O15379); test: HDAC enzyme assay (HDAC3); format: biochemical
# HDAC3, sequence (O15379 whole entry): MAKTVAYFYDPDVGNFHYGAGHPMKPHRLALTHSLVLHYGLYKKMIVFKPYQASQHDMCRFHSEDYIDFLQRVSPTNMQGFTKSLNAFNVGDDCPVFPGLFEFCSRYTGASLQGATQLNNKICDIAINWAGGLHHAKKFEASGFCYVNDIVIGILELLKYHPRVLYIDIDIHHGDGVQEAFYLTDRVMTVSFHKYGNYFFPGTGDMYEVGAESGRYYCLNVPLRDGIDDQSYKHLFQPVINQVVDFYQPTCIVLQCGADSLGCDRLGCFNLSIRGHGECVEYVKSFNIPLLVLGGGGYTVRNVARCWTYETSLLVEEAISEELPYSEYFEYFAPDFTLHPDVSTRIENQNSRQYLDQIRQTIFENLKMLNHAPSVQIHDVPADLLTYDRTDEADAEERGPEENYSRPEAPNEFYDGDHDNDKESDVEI
# HDAC3, sequence (Q9Y618 395-489 partner): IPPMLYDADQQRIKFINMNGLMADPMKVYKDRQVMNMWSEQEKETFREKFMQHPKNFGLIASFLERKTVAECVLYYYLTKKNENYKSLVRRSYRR
# HDAC1, sequence (Q13547 whole entry): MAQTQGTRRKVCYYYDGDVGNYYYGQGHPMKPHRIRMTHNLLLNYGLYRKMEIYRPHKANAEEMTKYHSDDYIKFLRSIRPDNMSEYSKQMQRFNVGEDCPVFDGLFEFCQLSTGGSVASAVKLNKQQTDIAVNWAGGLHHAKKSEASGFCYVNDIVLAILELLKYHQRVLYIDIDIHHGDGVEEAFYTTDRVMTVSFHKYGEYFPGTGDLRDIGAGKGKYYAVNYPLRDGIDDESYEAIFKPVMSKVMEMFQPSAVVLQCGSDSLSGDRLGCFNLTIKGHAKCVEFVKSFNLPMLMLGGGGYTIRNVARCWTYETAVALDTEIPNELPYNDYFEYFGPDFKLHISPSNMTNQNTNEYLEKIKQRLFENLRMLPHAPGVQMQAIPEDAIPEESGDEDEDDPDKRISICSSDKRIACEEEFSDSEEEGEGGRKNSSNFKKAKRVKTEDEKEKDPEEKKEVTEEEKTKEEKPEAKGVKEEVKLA
# HDAC2, sequence (Q92769 whole entry): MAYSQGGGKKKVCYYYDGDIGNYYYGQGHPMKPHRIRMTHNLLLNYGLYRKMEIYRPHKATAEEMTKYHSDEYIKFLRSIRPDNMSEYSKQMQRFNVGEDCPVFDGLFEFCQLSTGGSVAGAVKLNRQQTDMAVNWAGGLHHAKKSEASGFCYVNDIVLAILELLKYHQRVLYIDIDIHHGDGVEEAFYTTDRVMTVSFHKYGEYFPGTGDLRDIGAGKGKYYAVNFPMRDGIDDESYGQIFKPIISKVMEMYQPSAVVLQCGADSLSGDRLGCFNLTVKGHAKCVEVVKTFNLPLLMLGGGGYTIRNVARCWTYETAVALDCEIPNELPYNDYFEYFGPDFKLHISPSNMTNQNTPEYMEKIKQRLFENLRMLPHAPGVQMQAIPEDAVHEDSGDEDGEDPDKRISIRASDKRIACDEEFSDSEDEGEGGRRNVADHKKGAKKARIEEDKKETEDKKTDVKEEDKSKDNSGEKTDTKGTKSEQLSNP
# HDAC6, sequence (Q9UBN7 whole entry): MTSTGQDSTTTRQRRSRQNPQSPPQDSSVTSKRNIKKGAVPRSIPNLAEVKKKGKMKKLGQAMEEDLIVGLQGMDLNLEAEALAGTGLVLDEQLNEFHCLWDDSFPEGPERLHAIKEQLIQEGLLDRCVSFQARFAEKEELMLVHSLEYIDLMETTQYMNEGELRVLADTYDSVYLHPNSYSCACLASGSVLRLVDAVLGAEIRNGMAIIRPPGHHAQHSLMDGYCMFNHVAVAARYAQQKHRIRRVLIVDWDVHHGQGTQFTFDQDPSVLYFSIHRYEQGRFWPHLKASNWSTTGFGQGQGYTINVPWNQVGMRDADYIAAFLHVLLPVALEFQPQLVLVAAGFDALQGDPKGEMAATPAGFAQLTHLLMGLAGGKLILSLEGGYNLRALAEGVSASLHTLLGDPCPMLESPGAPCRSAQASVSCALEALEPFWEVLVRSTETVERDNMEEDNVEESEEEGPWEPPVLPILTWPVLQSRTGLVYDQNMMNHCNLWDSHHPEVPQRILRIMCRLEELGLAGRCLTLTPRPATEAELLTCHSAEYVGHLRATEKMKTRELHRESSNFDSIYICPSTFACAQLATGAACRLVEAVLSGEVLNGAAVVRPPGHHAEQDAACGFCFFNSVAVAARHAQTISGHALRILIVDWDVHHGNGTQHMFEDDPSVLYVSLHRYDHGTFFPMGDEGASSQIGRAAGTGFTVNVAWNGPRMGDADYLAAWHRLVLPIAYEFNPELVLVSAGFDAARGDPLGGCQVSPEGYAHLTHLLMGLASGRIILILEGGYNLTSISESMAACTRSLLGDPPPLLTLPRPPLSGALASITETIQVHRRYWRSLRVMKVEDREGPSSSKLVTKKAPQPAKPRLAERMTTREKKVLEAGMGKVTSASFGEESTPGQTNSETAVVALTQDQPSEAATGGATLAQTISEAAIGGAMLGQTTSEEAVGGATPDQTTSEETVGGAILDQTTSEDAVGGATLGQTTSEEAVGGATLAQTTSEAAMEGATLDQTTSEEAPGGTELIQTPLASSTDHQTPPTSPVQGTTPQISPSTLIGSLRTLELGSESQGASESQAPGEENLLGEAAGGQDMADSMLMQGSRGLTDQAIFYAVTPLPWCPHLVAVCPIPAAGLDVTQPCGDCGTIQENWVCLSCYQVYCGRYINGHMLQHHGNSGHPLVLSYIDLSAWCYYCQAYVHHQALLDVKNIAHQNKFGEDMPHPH
Compound,"metabolic changes incl. acyl-carnitines (AC 16:2, AC 18:2) [1]",tactile allodynia / pain threshold (von Frey) [2],"persistence of effect on pain threshold after drug withdrawal ([2]; day 24, three days after dosing was stopped)",blood brain barrier penetration [3],increase of latency time in Tail Flick test vs vehicle control [4],acetylation of axonal microtubules (acetyl-tubulin normalized to total tubulin) [5],mitochondrial movement (total distance traveled) [6],histone acetylation (western blot) ([7]; at up to 1 uM),tubulin acetylation (western blot) ([7]; whole cell extracts),IC50 [8] [nM],IC50 [9] [nM],IC50 [10] [nM],IC50 [11] [nM]
"O=C(NO)c1cnc(NC2(c3ccccc3)CC2)nc1 [Compound 1, N-hydroxy-2-((1-phenylcyclopropyl)amino)pyrimidine-5-carboxamide]","normalized many of the metabolic changes, including the changes in acyl-carnitines",reversed tactile allodynia in STZ rats in a dose dependent manner and restored the pain threshold in these rats to almost normal levels,persisted even after the drug was withdrawn,penetrates the blood brain barrier,not effective,,,,,,,,
"O=C(CCCCCCNC(=O)c1cnc(N(c2ccccc2)c2ccccc2)nc1)NO [Compound 2, 2-(diphenylamino)-N-(7-(hydroxyamino)-7-oxoheptyl)pyrimidine-5-carboxamide]",,reversed tactile allodynia in STZ rats in a dose dependent manner and restored the pain threshold in these rats to almost normal levels,,does not penetrate the blood brain barrier very well,not effective (except in the group that received Compound 2 at 30 mg/kg BID for 4 days),increases acetylation of axonal microtubules,restores normal pattern of mitochondrial movement,Minimal histone acetylation increase,induced an increase in tubulin acetylation in a dose-dependent matter,,,,
"COc1ccc(C(F)(F)F)cc1CNc1ncc(C(=O)NO)cn1 [Compound 3, N-hydroxy-2-((2-methoxy-5-(trifluoromethyl)benzyl)amino)pyrimidine-5-carboxamide]",,reversed tactile allodynia in STZ rats in a dose dependent manner and restored the pain threshold in these rats to almost normal levels,,,,,,,,2,82,68,105
